{
  "source": "paper PMC6390583",
  "about": "(BMC rheumatology, 2018)",
  "key": {"[1]": {"test_system": "adjuvant induced arthritis", "experiment": "Rat adjuvant-induced arthritis (AIA) model", "assay_type": "in vivo"}, "reticulocyte deployment": {"test_system": "reticulocyte deployment", "experiment": "Epo induced reticulocyte deployment assay", "assay_type": "in vivo", "settings": "rat, Epo challenge, highest concentration tested", "experimental": "Naïve male Lewis rats were injected intravenously with either PBS or 1000 IU of epoetin α (Procrit®, Janssen Products, LP, Horsham, PA) for two consecutive days. Reticulocytes were measured on day 4 by flow cytometry using thiozole orange as a dye as previously described."}, "[2]": {"test_system": "CD3-/CD16+/CD56+ NK cells", "experiment": "Circulating NK cell analysis after 14 days dosing", "assay_type": "in vivo, rat", "experimental": "Blood was collected and stained using BD MultiTest IMK kit (BD Biosciences, San Jose, CA) per manufacturer’s instructions. NK cell numbers were determined by using FlowJo analysis software (FlowJo, LLC, Ashland, OR) and by examining the CD3^−/CD16^+/CD56^+ population. The number of cells/μL was calculated by using the following equation: (# events in cell population/# of events in absolute bead count region) × (# beads per test/test volume), with the value beads per test indicated on the BD Trucount tube label."}, "IL-6 induced pSTAT3": {"test_system": "IL-6 induced pSTAT3", "experiment": "Clinical ex vivo IL-6 stimulation of whole blood, pSTAT3", "assay_type": "in vivo, healthy volunteers", "settings": "healthy volunteers, 5 mg of tofacitinib, 1 h post dose", "experimental": "(§1) Recombinant human IL-6 (400 ng/ml), or IL-7 (400 ng/ml), (R&D Systems, Minneapolis, MN) was added to blood and incubated for 10 min at 37°C. Surface antibodies were added (CD14-APC, CD3-fluorescein isothiocyanate [FITC]; BD Biosciences, San Jose, CA) and incubated on ice for an additional 20 min. Samples were lysed (Lyse/Fix, BD Biosciences, San Jose, CA) and incubated for 10 min at 37°C. Samples were washed and stored at − 70°C. For intracellular staining, samples were thawed, washed, and resuspended in BD Perm buffer III (BD Biosciences, San Jose, CA) on ice for 30 min. Samples were washed and stained with pSTAT5-PE or pSTAT3-PE (BD Biosciences, San Jose, CA) for 60 min at room temperature and then analyzed immediately on a FACSCalibur. Geometric means were determined using FlowJo analysis software."}, "IL-7 driven pSTAT5": {"test_system": "IL-7 driven pSTAT5", "experiment": "Clinical ex vivo IL-7 stimulation of whole blood, pSTAT5", "assay_type": "in vivo", "settings": "healthy volunteers, 5 mg tofacitinib, 1 h post dose", "experimental": "as §1"}},
  "data": [
    {"smiles": "C[C@@H]1CCN(C(=O)CC#N)C[C@@H]1N(C)c1ncnc2[nH]ccc12", "note": "[tofacitinib, reference compound]", "values": [
      {"measurement": "Reduction in paw swelling at clinical AUC exposures", "setting": "[1]; exposure associated with 10 mg BID of tofacitinib", "result": "~ 60%"},
      {"measurement": "AUC60, AUC0-12 drug concentration necessary to achieve 60% inhibition of paw swelling", "setting": "[1]; oral BID", "result": 1205, "unit": "ng·h/mL"},
      {"measurement": "Effect on paw swelling", "setting": "[1]; oral, dosed from day 7", "result": "dose-responsive efficacy"},
      {"measurement": "Maximal inhibition of reticulocyte deployment", "setting": "reticulocyte deployment", "result": "> 40", "unit": "%"},
      {"measurement": "AUC60 for decrease of circulating NK cell numbers", "setting": "[2]; naive rats dosed orally for 14 days", "result": 1230, "unit": "ng·h/mL"},
      {"measurement": "Decrease in circulating NK cells at AUC60", "setting": "[2]; rat, at AUC60 of paw swelling", "result": 70, "unit": "%"},
      {"measurement": "Inhibition of IL-6 induced pSTAT3", "setting": "IL-6 induced pSTAT3", "result": "~ 50%"},
      {"measurement": "Inhibition of IL-7 driven pSTAT5", "setting": "IL-7 driven pSTAT5", "result": "~ 70%"}
    ]}
  ]
}
